Measurements: ChEMBL document CHEMBL3044693, “Synthesis and antihyperlipidemic activity of novel condensed 2-fluoromethylpyrimidines” (2013)

Columns and labels:
Assay type in all cases: functional
Rattus norvegicus [1] = experiment: Antihyperlipidemic activity in high fat diet fed Sprague-Dawley Rattus norvegicus (rat) assessed as coronary risk index at 50 mg/kg, po daily for 7 days measured on day 8 (reference value: 5.21 +/-1.76 no unit)
Rattus norvegicus [2] = experiment: Antihyperlipidemic activity in high fat diet fed Sprague-Dawley Rattus norvegicus (rat) assessed as atherogenic index at 50 mg/kg, po daily for 7 days measured on day 8 (reference value: 4.15 +/-0.23 no unit)
Rattus norvegicus [3] = experiment: Antihyperlipidemic activity in high fat diet fed Sprague-Dawley Rattus norvegicus (rat) assessed as decrease in serum VLDL level at 50 mg/kg, po daily for 7 days measured on day 8 relative to untreated control; parameters: scale not given: the % may be the effect or the level left
Rattus norvegicus [4] = experiment: Antihyperlipidemic activity in high fat diet fed Sprague-Dawley Rattus norvegicus (rat) assessed as decrease in serum LDL level at 50 mg/kg, po daily for 7 days measured on day 8 relative to untreated control; parameters: scale not given: the % may be the effect or the level left
Rattus norvegicus [5] = experiment: Antihyperlipidemic activity in high fat diet fed Sprague-Dawley Rattus norvegicus (rat) assessed as increase in serum HDL level at 50 mg/kg, po daily for 7 days measured on day 8 relative to untreated control
Rattus norvegicus [6] = experiment: Antihyperlipidemic activity in high fat diet fed Sprague-Dawley Rattus norvegicus (rat) assessed as decrease in serum triglyceride level at 50 mg/kg, po daily for 7 days measured on day 8 relative to untreated control; parameters: scale not given: the % may be the effect or the level left
Rattus norvegicus [7] = experiment: Antihyperlipidemic activity in high fat diet fed Sprague-Dawley Rattus norvegicus (rat) assessed as decrease in serum total cholesterol level at 50 mg/kg, po daily for 7 days measured on day 8 relative to untreated control; parameters: scale not given: the % may be the effect or the level left
Rattus norvegicus [8] = experiment: Antihyperlipidemic activity in high fat diet fed Sprague-Dawley Rattus norvegicus (rat) assessed as coronary risk index at 1 mg/kg, po daily for 7 days measured on day 8 (reference value: 5.21 +/-1.76 no unit)
Rattus norvegicus [9] = experiment: Antihyperlipidemic activity in high fat diet fed Sprague-Dawley Rattus norvegicus (rat) assessed as atherogenic index at 1 mg/kg, po daily for 7 days measured on day 8 (reference value: 4.15 +/-0.23 no unit)
Rattus norvegicus [10] = experiment: Antihyperlipidemic activity in high fat diet fed Sprague-Dawley Rattus norvegicus (rat) assessed as decrease in serum VLDL level at 1 mg/kg, po daily for 7 days measured on day 8 relative to untreated control; parameters: scale not given: the % may be the effect or the level left
Rattus norvegicus [11] = experiment: Antihyperlipidemic activity in high fat diet fed Sprague-Dawley Rattus norvegicus (rat) assessed as decrease in serum LDL level at 1 mg/kg, po daily for 7 days measured on day 8 relative to untreated control; parameters: scale not given: the % may be the effect or the level left
Rattus norvegicus [12] = experiment: Antihyperlipidemic activity in high fat diet fed Sprague-Dawley Rattus norvegicus (rat) assessed as increase in serum HDL level at 1 mg/kg, po daily for 7 days measured on day 8 relative to untreated control
Rattus norvegicus [13] = experiment: Antihyperlipidemic activity in high fat diet fed Sprague-Dawley Rattus norvegicus (rat) assessed as decrease in serum triglyceride level at 1 mg/kg, po daily for 7 days measured on day 8 relative to untreated control; parameters: scale not given: the % may be the effect or the level left
Rattus norvegicus [14] = experiment: Antihyperlipidemic activity in high fat diet fed Sprague-Dawley Rattus norvegicus (rat) assessed as decrease in serum total cholesterol level at 1 mg/kg, po daily for 7 days measured on day 8 relative to untreated control; parameters: scale not given: the % may be the effect or the level left

## Cc1sc2nc(CF)[nH]c(=O)c2c1-c1ccccc1
Rattus norvegicus [1]
  Activity: 3.18
Rattus norvegicus [2]
  AI: 1.51
Rattus norvegicus [3]
  Activity: 39.77%
Rattus norvegicus [4]
  Activity: 48.7%
Rattus norvegicus [5]
  Activity: 41.31%
Rattus norvegicus [6]
  Activity: 39.74%
Rattus norvegicus [7]
  Activity: 33.18%

## O=c1[nH]c(CF)nc2ccccc12
Rattus norvegicus [1]
  Activity: 2.75
Rattus norvegicus [2]
  AI: 1.2
Rattus norvegicus [3]
  Activity: 46.8%
Rattus norvegicus [4]
  Activity: 57.31%
Rattus norvegicus [5]
  Activity: 52.4%
Rattus norvegicus [6]
  Activity: 46.19%
Rattus norvegicus [7]
  Activity: 38.24%

## O=C1[C@H](CC[C@H](O)c2ccc(F)cc2)[C@@H](c2ccc(O)cc2)N1c1ccc(F)cc1 [EZETIMIBE]
Rattus norvegicus [8]
  Activity: 2.01
Rattus norvegicus [9]
  AI: 0.58
Rattus norvegicus [10]
  Activity: 52.22%
Rattus norvegicus [11]
  Activity: 75.41%
Rattus norvegicus [12]
  Activity: 74.96%
Rattus norvegicus [13]
  Activity: 52.23%
Rattus norvegicus [14]
  Activity: 47.57%

## O=c1[nH]c(CF)nc2scc(-c3ccccc3)c12
Rattus norvegicus [1]
  Activity: 2.63
Rattus norvegicus [2]
  AI: 1.13
Rattus norvegicus [3]
  Activity: 49.37%
Rattus norvegicus [4]
  Activity: 56.47%
Rattus norvegicus [5]
  Activity: 46.43%
Rattus norvegicus [6]
  Activity: 49.36%
Rattus norvegicus [7]
  Activity: 37.45%

## CCOC(=O)C1=C(C)C2C(=O)N=C(CF)N=C2S1 (stereo not drawn)
Rattus norvegicus [1]
  Activity: 1.69
Rattus norvegicus [2]
  AI: 0.31
Rattus norvegicus [3]
  Activity: 57.76%
Rattus norvegicus [4]
  Activity: 86.92%
Rattus norvegicus [5]
  Activity: 73.48%
Rattus norvegicus [6]
  Activity: 57.77%
Rattus norvegicus [7]
  Activity: 56.19%

## COc1cc2nc(CF)[nH]c(=O)c2cc1OC
Rattus norvegicus [1]
  Activity: 3.16
Rattus norvegicus [2]
  AI: 1.53
Rattus norvegicus [3]
  Activity: 45.85%
Rattus norvegicus [4]
  Activity: 40.26%
Rattus norvegicus [5]
  Activity: 62.44%
Rattus norvegicus [6]
  Activity: 45.14%
Rattus norvegicus [7]
  Activity: 26.27%

## O=c1[nH]c(CF)nc2sc3c(c12)CCCC3
Rattus norvegicus [1]
  Activity: 2.39
Rattus norvegicus [2]
  AI: 0.96
Rattus norvegicus [3]
  Activity: 50.71%
Rattus norvegicus [4]
  Activity: 65.82%
Rattus norvegicus [5]
  Activity: 58.27%
Rattus norvegicus [6]
  Activity: 50.71%
Rattus norvegicus [7]
  Activity: 40.44%

## O=c1[nH]c(CF)nc2scc(-c3ccc(Cl)cc3)c12
Rattus norvegicus [1]
  Activity: 2.05
Rattus norvegicus [2]
  AI: 0.63
Rattus norvegicus [3]
  Activity: 51.91%
Rattus norvegicus [4]
  Activity: 72.47%
Rattus norvegicus [5]
  Activity: 79.63%
Rattus norvegicus [6]
  Activity: 51.91%
Rattus norvegicus [7]
  Activity: 44.99%

## Cc1sc2nc(CF)[nH]c(=O)c2c1C
Rattus norvegicus [1]
  Activity: 3.14
Rattus norvegicus [2]
  AI: 1.46
Rattus norvegicus [3]
  Activity: 37.83%
Rattus norvegicus [4]
  Activity: 45.91%
Rattus norvegicus [5]
  Activity: 44.68%
Rattus norvegicus [6]
  Activity: 37.8%
Rattus norvegicus [7]
  Activity: 32.48%
